Measured values: patent US7294511B2, “Methods for delivering nucleic acid molecules into cells and assessment thereof” (Chromos Molecular Systems, Inc., priority 2001, dated 2007)

Legend:
[1] = tested on: Hep-G2 cells; test: Ultrasound mediated transfection of Hep-G2 cells with GFP chromosomes and Saint-2; type: cell-based
Procedure: (§1) Alternatively, the medium was removed from the cells, and the cells were washed twice with HBSS. 500 μl HBSS/lipid solution at 37° C. was added to each well. The HBSS/lipid solution was prepared by adding 1 μl ethanolic lipid solution (prepared as described above) to 500 μl HBSS under vigorous vortexing. The plates were then sealed with parafilm tape and shaken gently at room temperature for 30 min. After incubation, ultrasound was applied at an output energy of 0.5 Watt/cm^2 for 60 sec through the bottom of the plate to the cells. The ultrasound was mediated by an ultrasound gel (Aquasonic 100, Parker, N.J.) between transducer and plate. The ultrasound was applied with an ImaRx Sonoporator 100. Immediately after applying ultrasound one GFP chromosome per seeded cell (2×10^5-5×10^5) (prepared in Example 1) was added. The plate was then sealed again and shaken gently for 1 h at room temperature. After the incubation 1 ml medium (CHO—S-SFM 2 with 10% Fetal Calf Serum, 10000 μg/ml Penicillin and 10000 μg/ml Streptomycin Gibco BRL, Paisley, UK) was added to each well and the cells were incubated for 24 h at 37° C. The cells were then washed with medium, 1 ml medium was added, and the cells were incubated at 37° for another 24 h. Detection of expressed genes was then assayed by microscopy or detection of the transferred chromosome by FISH analysis. […]

[2] = tested on: A9 cells; test: Ultrasound mediated transfection of A9 cells with GFP chromosomes and Saint-2; type: cell-based, murine
Procedure: as §1

[3] = tested on: CHO-KI cells; test: Ultrasound mediated transfection of CHO-KI cells with GFP chromosomes and Saint-2; type: cell-based
Procedure: Vesicles were prepared at a lipid concentration of 700 nmol/ml lipid (cationic lipid/DOPE 1:1) as follows. In a glass tube (10 ml) 350 nmol cationic lipid (SAINT-2) was mixed with 350 nmol dioleoylphosphatidylethanolamine (DOPE), both solubilized in an organic solvent (Chloroform, Methanol or Chloroform/Methanol 1:1, v/v). dioleoylphosphatidylethanolamine (DOPE; Avanti Polar Lipids, Alabaster, Ala.) forms inverse hexagonal phases in a membrane and weakens the membrane. Other effectors that may be used are cis-unsaturated phosphatidylethanolamines, cis-unsaturated fatty acids, and cholesterol.
The solvent was evaporated under a stream of nitrogen (15 min/250 μl solvent at room temperature). The remaining solvent was removed totally by drying the lipid for 15 min in an desiccator under high vacuum from a vacuum pump. To the dried mixture was added 1 ml ultrapure water. This was vortexed vigorously for about 5 min. The resulting solution was sonicated in an ultrasonication bath (Laboratory Supplies Inc. N.Y.) until a clear solution was obtained. The resulting suspension contained a population of unilamellar vesicles with a size distribution between 50 to 100 nm.
CHO-KI cells were grown at 37° C., 5% CO2, in CHO—S-SFM 2 Medium, (Gibco BRL, Paisley, UK). Between 2×10^5 and 5×10^5 cells were plated onto sterile glass slides in a 12 well plate 24 h before usage.
Transfection of the cells was performed as follows. The medium was removed from the cells, and the cells were washed twice with HBSS (Hanks balanced salt solution without Phenol Red (Gibco BRL, UK)) at 37° C. Then 500 μl HBSS at 37° C. was added per well, followed by 10 μl of the freshly prepared vesicle solution (prepared in Example 2) to yield a final concentration of 23.3 nmol/ml.
as §1, with “temperature.” for “temperature. After the incubation 1 ml medium (CHO—S-SFM 2 with 10% Fetal Calf Serum, 10000 μg/ml Penicillin and 10000 μg/ml Streptomycin Gibco BRL, Paisley, UK) was added to each well and the cells were incubated for 24 h at 37° C. The cells were then washed with medium, 1 ml medium was added, and the cells were incubated at 37° for another 24 h. Detection of expressed genes was then assayed by microscopy or detection of the transferred chromosome by FISH analysis.”

`CCCCCCCCC=CCCCCCCCCC(CCCCCCCCC=CCCCCCCCC)c1cc[n+](C)cc1.[Cl-]` (centres unmarked) [Saint-2, 1-methyl-4-(1-octadec-9-enyl-nonadec-10-enylenyl)pyridinium chloride] was tested, and the “cells remained on the glass slide after transfection” value ([1]; Hep-G2, Saint-2/DOPE, ultrasound 0.5 Watt/cm^2 60 sec) was 30%, the “remaining cells positive for green fluorescent protein expression” value (from here on “remaining cells positive”) ([1]; Hep-G2, of the cells remaining on the slide) was 80% and the “cells remained on the glass after transfection” value ([2]; A9, Saint-2/DOPE, ultrasound 0.5 Watt/cm^2 60 sec) was 30%. For the same compound, the “remaining cells positive” value ([2]; A9, of the cells remaining on the glass) was 50%, the “cells remained on the glass slide after transfection” value ([3]; Saint-2/DOPE, ultrasound 0.5 Watt/cm^2 60 sec, visual inspection) was 30% and the “GFP positive cells as % of original population” value ([3]; after 48 hours) was 3%. For the same compound, the “remaining cells positive” value ([3]; after 48 hours, of the cells remaining on the slide) was 10% and the “cells containing an intact artificial chromosome (FISH)” value ([3]; after culturing for two weeks) was 1.4%.
